Assay results as given in patent US20080146495A1, “Methods for Treating Hiv by Inhibiting Cd4 Down-Modulation” (The Regents of the University of California, priority 2005, published 2008).

Columns and labels:
Assay type in all cases: cell-based
HIV-1 = system: HIV-1
HIV-1 R9 = system: HIV-1 R9
[1] = system: HIV-1 Nef (NA7) fused to GFP; settings: 293T cells transduced with pHR'-CMV vectors, transfected with Nef (NA7)-GFP
HIV-1 (R9) [2] = test: Surface CD4 down-modulation in transduced PBMC infected with HIV-1 (flow cytometry)
[3] = system: CXCR4-tropic R9 HIV-1 strain; test: Viral replication assay in transduced Jurkat Low-CD4 cells (p24 accumulation)
HIV-1 (R9) [4] = test: Infectivity in MAGIC5 cells of particles released from transduced SupT1, C8166 and MAGIC5B cells; settings: three cell types (SupT1, C8166, MAGIC5B); compared to control GFP vectors
Description: Infectivity assays were performed with MAGIC-5 cells using equal amounts of input virus (measured as ng p24 protein) in the presence of 20 μg/ml DEAE dextran. Infection was allowed for 48 hours. Routinely, after 8 hrs of infection, 1 μM AZT was added to block second rounds of virus replication. Infected cells were scored after staining for beta-galactosidase with X-Gal.
Truncated receptor provided to a cell via one of the above-described vectors negatively interferes with HIV-induced down-regulation of endogenous CD4 receptor. […] Though any suitable cell line could be used, the three chosen were: SupT1, C8166, and MAGIC5B. These were selected because they express high levels of viral receptor, as shown in the bottom panel of FIG. 7. Transduction efficiencies with GFP control vectors were higher than 90% in all cell lines, as estimated by flow cytometry. Infection of mock-transduced cells with HIV-1 led to efficient down-modulation of CD4. […] In these cultures, a population of low-CD4/p24-positive infected cells that had undergone receptor down-modulation emerged. […] The infectivity of viral particles released from the cells was determined as with respect to FIG. 5, above.

[5] = system: HIV-1 Env (gp160, gp120, gp41)
HIV-1 (R9) [6] = test: HIV-induced CD4 down-modulation in transduced CD4-positive cell lines (SupT1, C8166, MAGIC5B)
[7] = virions purified through sucrose cushions

For `Cc1cn([C@H]2C[C@H](N=[N+]=[N-])[C@@H](CO)O2)c(=O)[nH]c1=O` [AZT, reference compound], the “extent of inhibition of infectivity relative to that by CD4Δcyt expression” value (HIV-1; 1 μM added to target MAGIC5 cells) was “comparable”.
CD4Δcyt was tested, and the “amount on the surface of infected cells, mean values” (HIV-1 R9) was 2857, the “down-modulation of surface receptor by HIV-1 (VSV)” value (HIV-1 R9) was “completely resistant to down-modulation” and the “surface levels in HIV-1 infected cells, higher than in infected cells transduced with wild-type CD4” value (HIV-1 R9) was 11 fold. For the same compound, the “effect of Nef-GFP expression on surface expression of the CD4 variant” value [1] was “did not alter the expression”, the “reduction in CD4 down-modulation compared to cells transduced with full-length receptor” value (HIV-1 (R9) [2]; PBMC infected with HIV-1) was “more than 10 fold” and the “numbers of low-CD4/GFP-positive cells after HIV-1 infection” value (HIV-1 (R9) [2]; PBMC transduced to similar levels with pWPI vector) was “reduced numbers of low-CD4/GFP-positive cells”. For the same compound, the “extent of inhibition in single-round infectivity assays” value (HIV-1) was “greater than 99%”, the “reduced infectivity of viral progeny” value (HIV-1) was 100 fold and the “reduction of infectivity of HIV-1” value (HIV-1) was “more than 1000 fold”. The “HIV-1 replication (p24 accumulation in cultures)” value ([3]; Jurkat Low-CD4 cells, HIV-1 R9) was “complete abrogation of HIV-1 replication”, the revertant viruses ([3]; after more than 60 days, two independent experiments, Jurkat Low-CD4 cells exposed to HIV-1) was “not detected” and the “infectivity of viral particles released from transduced cells” value (HIV-1 (R9) [4]) was “largely diminished infectivity”. The “gp160 envelope precursor in producer cell lysates (anti-gp120 western blot)” value ([5]; total cell lysates of 293T producer cells) was “accumulation of a 160 kDa protein band”, the “steady-state levels of gp41 in producer cells” value ([5]; transduced 293T cells) was “reduction in the steady-state levels of gp41” and the “gp41 incorporation in membranes from virions” value [5, 7] was “Reductions in gp41 incorporation”. The “gp120 incorporation into / exclusion from virions” value [5, 7] was “more severe”, the “surface CD4 levels in infected cells, higher than in mock-infected cells” value (HIV-1 (R9) [6]; SupT1, C8166, MAGIC5B cells) was 3- to 4 fold and the “receptor down-modulation after HIV-1 infection of transduced CD4-positive cells” value (HIV-1 (R9) [6]; SupT1, C8166, MAGIC5B cells, 48 h after infection) was “failed to down-modulate the receptor”. The “p24-positive cells with low levels of CD4 receptor” value (HIV-1 (R9) [6]; cultures of SupT1 and C8166 cells) was “no longer observed”.
